Experimental findings from DBAASP are described below.

Among the test systems are Escherichia coli BL21; Serratia marcescens; Escherichia coli; Escherichia coli C600.
Experiment in all cases: ≥ marks a high value that may be exact or a test limit, other limits are often not marked, values filed in µg/mL are converted to µM
For assay [1], the system named is Pseudomonas aeruginosa PAO1.
Assay [2] concerns Streptococcus pyogenes M1T1 5448.
The test system of assay [3] is Klebsiella pneumoniae ATCC 13833.
Assay [4] deals with Pseudomonas aeruginosa ATCC 27853.
The subject of assay [5] is Candida albicans ATCC 90028.
In assay [6] the test system is Staphylococcus aureus ATCC 25923.
The test system of assay [7] is Escherichia coli ATCC 25922.
Assay [8] concerns Cryptococcus neoformans B3501.
The subject of assay [9] is Klebsiella pneumoniae ATCC 10031.
For assay [10], the system named is Pseudomonas aeruginosa ATCC 9027.
In assay [11] the test system is Salmonella enterica subsp. enterica serovar Typhimurium ATCC 14028.
For assay [12], the system named is Shigella dysenteriae ATCC 9752.
The test system of assay [13] is Micrococcus luteus ATCC 4698.
Assay [14] concerns Bacillus subtilis KCTC 1021.
The test system of assay [15] is Staphylococcus aureus 209P.
Assay [16] deals with Staphylococcus aureus USA 300.

Converted amounts (≈) assume the structure as drawn.

As usually defined, the MIC is the smallest concentration in the dilution series that meets the test's criterion for growth inhibition. Low values mean a more susceptible organism, high ones a less susceptible organism. For `CC[C@H](C)[C@H](NC(=O)[C@H](CCCN=C(N)N)NC(=O)CNC(=O)[C@@H](NC(=O)[C@H](CCCCN)NC(=O)[C@H](CCCN=C(N)N)NC(=O)[C@@H](NC(=O)[C@H](Cc1ccc(O)cc1)NC(=O)[C@H](CCCN=C(N)N)NC(=O)[C@H](CCCN=C(N)N)NC(=O)[C@H](CC(C)C)NC(=O)[C@H](CCC(=O)O)NC(=O)[C@H](CCCCN)NC(=O)[C@H](C)NC(=O)[C@@H](NC(=O)[C@H](CCCN=C(N)N)NC(=O)[C@H](CC(N)=O)NC(=O)[C@@H](NC(=O)CNC(=O)[C@H](C)N)[C@@H](C)O)[C@@H](C)CC)[C@@H](C)CC)C(C)C)C(=O)N[C@@H](C)C(=O)N[C@@H](CCCN=C(N)N)C(=O)N[C@@H](CCCCN)C(=O)N[C@@H](Cc1c[nH]c2ccccc12)C(=O)N[C@@H](Cc1c[nH]c2ccccc12)C(=O)O` [AGTNRIAKELRRYIRKVGRIARKWW], the MIC in assay [1] amounted to 8 µM (≈ 24.8 µg/mL); in assay [2], 1 µM (≈ 3.1 µg/mL); against Escherichia coli BL21, 0.25 µM (≈ 0.775 µg/mL).
As for `CC[C@H](C)[C@H](NC(=O)[C@H](Cc1cnc[nH]1)NC(=O)[C@H](C)NC(=O)[C@H](Cc1ccc(O)cc1)NC(=O)[C@@H](NC(=O)[C@H](CCCN=C(N)N)NC(=O)[C@H](Cc1ccccc1)NC(=O)[C@H](CC(C)C)NC(=O)[C@H](CCCN=C(N)N)NC(=O)[C@H](CCCCN)NC(=O)[C@H](CC(C)C)NC(=O)[C@@H](NC(=O)[C@@H](NC(=O)[C@H](CCCCN)NC(=O)[C@H](C)NC(=O)[C@@H](NC(=O)[C@H](CO)NC(=O)[C@H](CCSC)NC(=O)[C@@H](N)Cc1ccccc1)C(C)C)[C@@H](C)O)[C@@H](C)CC)C(C)C)C(=O)N[C@@H](Cc1ccc(O)cc1)C(N)=O` [FMSVAKTILKRLFRVYAHIY], the minimal inhibitory concentration (MIC) in assay [3] was determined as 4 µM (≈ 9.82 µg/mL); in assay [4], 8 µM (≈ 19.6 µg/mL); in assay [5], 8 µM (≈ 19.6 µg/mL); in [6], 4 µM (≈ 9.82 µg/mL); in assay [7] it was 4 µM (≈ 9.82 µg/mL); in assay [8] it was 2 µM (≈ 4.91 µg/mL).
Regarding `CC[C@H](C)[C@H](NC(=O)CN)C(=O)N[C@@H](CC(C)C)C(=O)N[C@@H](CC(=O)O)C(=O)N[C@H](C(=O)N[C@@H](CC(C)C)C(=O)N[C@@H](CCCCN)C(=O)N[C@@H](CCC(N)=O)C(=O)N[C@@H](Cc1ccccc1)C(=O)N[C@@H](C)C(=O)N[C@@H](CCCCN)C(=O)NCC(=O)N[C@H](C(=O)NCC(=O)N[C@@H](CCCCN)C(=O)N[C@@H](CC(=O)O)C(=O)N[C@@H](CC(C)C)C(=O)N[C@H](C(=O)N[C@@H](CCCCN)C(=O)NCC(=O)N[C@@H](C)C(=O)N[C@@H](C)C(=O)N[C@@H](CCC(N)=O)C(=O)O)C(C)C)C(C)C)[C@@H](C)O` [GILDTLKQFAKGVGKDLVKGAAQ], the MIC in assay [9] was ≥ 84.8 µM; in [10], > 84.8 µM; in assay [11], > 84.8 µM; with Serratia marcescens it was ≥ 84.8 µM; in assay [12] it was ≥ 84.8 µM; in [13] it was ≥ 84.8 µM. Also, the MIC against Escherichia coli was > 84.8 µM; in assay [14] it was ≥ 84.8 µM.
`CC[C@H](C)[C@@H]1NC(=O)CNC(=O)[C@H](CCCN=C(N)N)NC(=O)[C@H](CCCN=C(N)N)NC(=O)[C@@H]2CSSC[C@H](NC1=O)C(=O)N[C@@H](Cc1ccc(O)cc1)C(=O)N[C@@H](CCCN=C(N)N)C(=O)N[C@@H](CCCN=C(N)N)C(=O)N[C@H](C(=O)N[C@@H](CCCN=C(N)N)C(=O)O)CSSC[C@H](NC(=O)[C@H](Cc1c[nH]c3ccccc13)NC(=O)[C@@H](N)CCCCN)C(=O)N[C@@H](Cc1ccccc1)C(=O)N[C@@H](CCCN=C(N)N)C(=O)N[C@@H](C(C)C)C(=O)N2` [KWCFRVCRRGICYRRCR]: the MIC in assay [1] turned out to be 6.25 µM (≈ 14.1 µg/mL); in [15], 3.13 µM (≈ 7.07 µg/mL); against Escherichia coli C600, 1.56 µM (≈ 3.52 µg/mL).
The like results for `CC[C@H](C)[C@@H]1NC(=O)CNC(=O)[C@H](CCCN=C(N)N)NC(=O)[C@H](CO)NC(=O)[C@@H]2CSSC[C@H](NC1=O)C(=O)N[C@@H](Cc1ccc(O)cc1)C(=O)N[C@@H](CCCN=C(N)N)C(=O)N[C@@H](CCCN=C(N)N)C(=O)N[C@H](C(=O)N[C@@H](CCCN=C(N)N)C(=O)O)CSSC[C@H](NC(=O)[C@H](Cc1c[nH]c3ccccc13)NC(=O)[C@@H](N)CCCCN)C(=O)N[C@@H](Cc1ccccc1)C(=O)N[C@@H](CCCN=C(N)N)C(=O)N[C@@H](C(C)C)C(=O)N2` [KWCFRVCSRGICYRRCR] were, in that order, 3.13 µM (≈ 6.85 µg/mL), 3.13 µM (≈ 6.85 µg/mL) and 0.8 µM (≈ 1.75 µg/mL).
With `CC[C@H](C)[C@H](NC(=O)[C@H](CCCN=C(N)N)NC(=O)[C@H](CC(N)=O)NC(=O)[C@H](Cc1ccccc1)NC(=O)[C@H](CC(C)C)NC(=O)CNC(=O)[C@H](CCSC)NC(=O)[C@@H](N)CC(C)C)C(=O)N[C@H](C(=O)N[C@@H](CCCN=C(N)N)C(=O)N[C@@H](CCCCN)C(=O)N[C@H](C(=O)N[C@H](C(=O)N[C@@H](CCCCN)C(=O)N[C@@H](CC(C)C)C(=O)N[C@@H](Cc1ccccc1)C(=O)N[C@@H](CC(N)=O)C(N)=O)C(C)C)C(C)C)[C@@H](C)CC` [LMGLFNRIIRKVVKLFN], the MIC in assay [3] stood at 8 µM (≈ 16.5 µg/mL); in assay [4], 16 µM (≈ 33 µg/mL); in [5], 16 µM (≈ 33 µg/mL); in [6], 8 µM (≈ 16.5 µg/mL); in assay [7], 8 µM (≈ 16.5 µg/mL); in assay [8], 4 µM (≈ 8.24 µg/mL).
Consider `CC[C@H](C)[C@H](NC(=O)[C@H](CCCN=C(N)N)NC(=O)CNC(=O)[C@@H](NC(=O)[C@H](CCCCN)NC(=O)[C@H](CCCN=C(N)N)NC(=O)[C@@H](NC(=O)[C@H](Cc1ccc(O)cc1)NC(=O)[C@H](CCCN=C(N)N)NC(=O)[C@H](CCCN=C(N)N)NC(=O)[C@H](CC(C)C)NC(=O)[C@H](CCC(=O)O)NC(=O)[C@H](CCCCN)NC(=O)[C@H](C)NC(=O)[C@@H](NC(=O)[C@H](CCCN=C(N)N)NC(=O)[C@H](CC(N)=O)NC(=O)[C@@H](NC(=O)CNC(=O)[C@@H](N)Cc1c[nH]c2ccccc12)[C@@H](C)O)[C@@H](C)CC)[C@@H](C)CC)C(C)C)C(=O)N[C@@H](C)C(=O)N[C@@H](CCCN=C(N)N)C(=O)N[C@@H](CCCCN)C(=O)N[C@@H](C)C(=O)N[C@@H](Cc1c[nH]c2ccccc12)C(=O)O` [WGTNRIAKELRRYIRKVGRIARKAW], for which the MIC in assay [1] is 8 µM (≈ 24.8 µg/mL); in assay [2], 0.25 µM (≈ 0.775 µg/mL); against Escherichia coli BL21, 1 µM (≈ 3.1 µg/mL); in assay [16] it was 16 µM (≈ 49.6 µg/mL).
